In patent publication EP0620008B1, “Use of vip, analogues and fragments thereof for the treatment of neurodegenerative diseases” (YEDA RESEARCH AND DEVELOPMENT COMPANY, LTD., priority 1993, dated 1999):
Where no end group is shown, it is not given here.

What was measured:
[1] = system: neurons treated with fragment 25-35 of β-Amyloid peptide; experiment: survival of cerebral cortex neurons treated with fragment 25-35 of β-amyloid peptide; assay type: cell-based, rat; conditions: 25 µM fragment alone; 5 days
Method: β-amyloid peptide is known to be involved in Alzheimer's disease and is a toxic substance to neurons grown in culture (Pike et al., J. of Neurosci., 13(4), 1676-1687 (1993)). Neurons from rat cerebral cortex, prepared as described above were treated with 25 µM of β-amyloid peptide fragment comprising amino acids in positions 25 to 35 mentioned in the above publication. The β-amyloid peptide fragment was dissolved in water and preincubated at 37°C for 48 h in 10% CO2. St-Nle^17-VIP (10 µl/1 ml medium) was added to the culture plates at varying concentrations together with the β-amyloid peptide fragment. The St-Nle^17-VIP was initially dissolved in DMSO to give a concentration of 10^-3 M and all further dilutions were performed in saline. Cells were then incubated for 5 days, stained with antibodies against neuron specific enolase and living neurons were counted as described above.

[2] = system: neurons treated with a VIP antagonist; experiment: survival of cerebral cortical neurons treated with a VIP antagonist
Method: (§1) • (a) Cerebral cortical cultures were prepared by a slight modification of the techniques described by Forsythe and Westbrook, (J. Physiol. Lond. 396:515 (1988)), in which cerebral cortex was used instead of hippocampus and newborn rats were utilized instead of E16 mice. […] Cerebral cortical cells were counted as above, however, only 40 fields per plate were counted comprising an area of 20 mm^2.
(§2) • (a) Cells were prepared as described in Example 5. […] One treatment was given at the beginning of a five day test period. Cell counts were performed on 100 fields, with a total area of 50 mm^2. Neurons were counted without knowledge of treatment.

untreated neurons = experiment: survival of untreated cerebral cortical neurons (protection from naturally occurring death); conditions: for concentrations able to protect cells from naturally occurring death: cerebral cortical cultures of newborn rats, number of cells at 10^-12 M serves as control, Figs. 2-4
Method: as §1, §2

## GSNKGAIIGLM [fragment 25-35 of β-amyloid peptide]
[1]
  number of living neurons: 42 per 20 mm^2

## St-A-V-T-T-D-N-Y-T (stearyl-AVTTDNYT) [peptide 5]
[2]; in the presence (Fig. 5A) and in the absence (Fig. 5B) of the VIP antagonist
  effect on neuronal survival: VIP agonist, stimulating neuronal survival
[2]; in the presence of 10^-8 M VIP antagonist, five day test period, Fig. 5A
  concentration of maximal activity (neuronal survival): 10^-10 M
Untreated neurons; in absence of the VIP antagonist, five day test period, Fig. 5B
  concentration of maximal activity (neuronal survival): 10^-8 M

## St-H-S-D-G-I-F-T-D-S-Y-S-R-Y-R (stearyl-HSDGIFTDSYSRYR) [peptide 1]
Untreated neurons
  concentrations able to protect cells from naturally occurring death: above 10^-8 M

## St-K-Q-M-A-V-K-K-Y-L-A-A-V-L (stearyl-KQMAVKKYLAAVL) [peptide 2]
Untreated neurons
  concentrations able to protect cells from naturally occurring death: above 10^-9 M
